Test results from ChEMBL document CHEMBL3137667, “[Drug-induced liver injury; fourteenth updated edition of the bibliographic database of liver injuries and related drugs]” (Gastroenterol Clin Biol, 2004).

Legend:
[1] = human
[2] = human; remark: listed apart in the source
[3] = human; remark: listed apart in the source
[4] = human; remark: listed apart in the source
[5] = human, serum
[6] = human; remark: listed apart in the source
[7] = human, serum; remark: listed apart in the source
[8] = human, serum, 4383 h
[9] = human; remark: listed apart in the source
[10] = human; remark: listed apart in the source
[11] = human; remark: listed apart in the source
[12] = Highest frequency of moderate liver toxicity observed during clinical trials, expressed as a percentage. [column '% BIOL' in source]; settings: human
[13] = Highest frequency of acute liver toxicity observed during clinical trials, expressed as a percentage. [column '% AIGUE' in source]; settings: human
[14] = human; remark: listed apart in the source
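Wherever Hepatotoxicity (association with vascular disease) is given: count of indexed literature references reporting vascular liver injury in humans, e.g. peliosis hepatitis, hepatic veno-occlusive disease or Budd-Chiari syndrome.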
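Wherever Hepatotoxicity (benign tumour) is given: value is a count of indexed literature references citing a benign tumour confirmed by histopathology.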
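Wherever Hepatotoxicity (choleostasis) is given: human cholestatic liver injury, shown by histopathology or by peak ALT or AST elevation over alkaline phosphatase ratio below 2, value counts indexed literature reports.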
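Wherever Hepatotoxicity (chronic liver disease) is given: chronic liver injury confirmed by histopathology or persistently raised serum aminotransferase activity beyond 6 months, value given as the count of indexed literature references.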
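Wherever Hepatotoxicity (cirrhosis) is given: value is a count of indexed literature references reporting cirrhosis confirmed by histopathology.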
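Wherever Hepatotoxicity (cytolytic) is given: human cytolytic liver injury, shown by histopathology or by a ratio above 5 of peak ALT or AST elevation to alkaline phosphatase elevation, value counts indexed references.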
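Wherever Hepatotoxicity (granulomatous hepatitis) is given: value is a count of indexed literature references reporting granulomatous liver disease confirmed by histopathology.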
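Wherever Hepatotoxicity (malignant tumour) is given: malignant tumour confirmed by histopathology, value gives the count of indexed literature references reporting it.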
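Wherever Hepatotoxicity (severe hepatitis) is given: human clinical data: severe hepatitis, meaning potentially life-threatening liver failure or clinically observed cases, the value counts how many indexed literature references report it.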
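Wherever Hepatotoxicity (steatosis) is given: steatosis confirmed by histopathology, value is the count of indexed references.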

Compound | Hepatotoxicity (benign tumour) [1] | Hepatotoxicity (cirrhosis) [2] | Hepatotoxicity (cytolytic) [3] | Hepatotoxicity (choleostasis) [4] | Hepatotoxicity (acute) [5] | Hepatotoxicity (granulomatous hepatitis) [6] | Hepatotoxicity (moderate) [7] | Hepatotoxicity (chronic liver disease) [8] | Hepatotoxicity (association with vascular disease) [9] | Hepatotoxicity (severe hepatitis) [10] | Hepatotoxicity (malignant tumour) [11] | Hepatotoxicity (moderate) [12] [%] | Hepatotoxicity (acute) [13] [%] | Hepatotoxicity (steatosis) [14]
CC(N)C(=O)OC(C)(C)Cc1ccc(Cl)cc1 (stereo not given) [ALAPROCLATE] | 0 | 0 | 0 | 0 | 0 | 0 | 1 | 0 | 0 | 0 | 0 | 0 | 0 | 0
CO[C@@H]1O[C@H](CO)[C@H](O)[C@H](O[C@@H]2O[C@@H](C(=O)O)[C@@H](OC)[C@H](O)[C@H]2O)[C@H]1NC(C)=O | 0 | 0 | 0 | 0 | 0 | 0 | 1 | 0 | 0 | 0 | 0 | 0 | 0 | 0
COc1ccc(CCN(C)CCCC(C#N)(c2cc(OC)c(OC)c(OC)c2)C(C)C)cc1OC (stereo not given) [GALLOPAMIL] | 0 | 0 | 0 | 0 | 0 | 0 | 1 | 0 | 0 | 0 | 0 | 4 | 0 | 0
CCC/C=C/C=C/C(=O)O[C@H]1/C(=C/C(=O)OC)C[C@H]2C[C@H]([C@@H](C)O)OC(=O)C[C@H](O)C[C@@H]3C[C@H](OC(C)=O)C(C)(C)[C@](O)(C[C@@H]4C/C(=C/C(=O)OC)C[C@H](/C=C/C(C)(C)[C@]1(O)O2)O4)O3 [BRYOSTATIN 1] | 0 | 0 | 0 | 1 | 1 | 0 | 2 | 0 | 0 | 0 | 0 | 16.7 | 8.3 | 0
CC(=O)OCC(=O)[C@@]1(O)CC[C@H]2[C@@H]3CCC4=CC(=O)C=C[C@]4(C)[C@@]3(F)[C@@H](O)C[C@@]21C [ISOFLUPREDONE ACETATE] | 0 | 0 | 0 | 0 | 0 | 0 | 2 | 0 | 0 | 0 | 0 | 0 | 0 | 0
CC(C)(C#N)c1cc(Cn2cncn2)cc(C(C)(C)C#N)c1 [ANASTROZOLE] | 0 | 0 | 0 | 0 | 0 | 0 | 1 | 0 | 0 | 0 | 0 | 0 | 0 | 0
BEMIPARIN SODIUM | 0 | 0 | 0 | 0 | 0 | 0 | 1 | 0 | 0 | 0 | 0 | 0 | 0 | 0
COC(=O)c1nc2cc(Cl)c3cccnc3c2o1 [QUAZOLAST] | 0 | 0 | 0 | 0 | 0 | 0 | 1 | 0 | 0 | 0 | 0 | 13 | 0 | 0
CCOC(=O)OC(C)OC(=O)[C@@H]1N2C(=O)[C@@H](NC(=O)[C@H](N)c3ccccc3)[C@H]2SC1(C)C (stereo not given in full) [BACAMPICILLIN] | 0 | 0 | 0 | 0 | 0 | 0 | 2 | 0 | 0 | 0 | 0 | 0 | 0 | 0
CCOC(=O)C1=C(C)NC(C)=C(C(=O)OCC)C1c1ccccc1/C=C/C(=O)OC(C)(C)C [LACIDIPINE] | 0 | 0 | 0 | 0 | 0 | 0 | 1 | 0 | 0 | 0 | 0 | 0 | 0 | 0
C[C@@H](O)[C@H]1C(=O)N2C(C(=O)O)=C(S[C@@H]3CN[C@H](C(=O)Nc4cccc(C(=O)O)c4)C3)[C@H](C)[C@H]12 | 0 | 0 | 0 | 0 | 0 | 0 | 4 | 0 | 0 | 0 | 0 | 0 | 0 | 0
O=c1[nH]c(=O)n([C@@H]2O[C@H](CO)[C@@H](O)[C@@H]2O)cc1/C=C/Br [SORIVUDINE] | 0 | 0 | 0 | 0 | 0 | 0 | 1 | 0 | 0 | 0 | 0 | 2 | 0 | 0
NCCCNc1ccc2c3c(nn2CCNCCO)-c2c(O)ccc(O)c2C(=O)c13 [PIROXANTRONE] | 0 | 0 | 0 | 0 | 0 | 0 | 4 | 0 | 0 | 0 | 0 | 9.1 | 0 | 0
CCC1=C(C[C@H]2NCCc3cc(OC)c(OC)cc32)C[C@H]2c3cc(OC)c(OC)cc3CCN2C1 [DEHYDROEMETINE] | 0 | 0 | 0 | 0 | 0 | 0 | 1 | 0 | 0 | 0 | 0 | 0 | 0 | 0
CCN1C(=O)NC(c2ccccc2)C1=O (stereo not given) [ETHOTOIN] | 0 | 0 | 0 | 0 | 0 | 0 | 1 | 0 | 0 | 0 | 0 | 2 | 0 | 0
